Earlier results in US11896675B2, “Site-specific antibody conjugation and antibody-drug conjugate as specific embodiment thereof” (AbTis Co., Ltd., priority 2019, dated 2024).
Square brackets hold non-standard residues; d marks the D form. Ends that are not written are not given here. Cit = NC(=O)NCCC[C@H](N)C(=O)O

Legend:
IgG [1] = conditions: towards IgG, obtained at different conditions or by different methods; for Kd: read-out: Binding Constant Kd
IgG [2] = conditions: towards IgG

Row | Substance | Binding Constant Ka (IgG [1]) | Binding Capacity, DBC (dynamic binding capacity) (IgG [2]) | Binding Capacity (IgG [2]) | Kd (IgG [1]) | Binding Capacity (maximal binding capacity qm) (IgG [2])
1 | NARKFYKG [spot peptide array peptide] | Ka = 6.5 × 10^6M^−1 | DBC-5.0 |  |  | 
2 | EPIHRSTLTALL [phage display library peptide, SpA mimic] |  |  | 320 µg/g |  | 
3 | RRGW |  |  |  | 0.0005 µM | 
4 | HWRGWV [comb. library peptide, SpA mimic] |  |  |  | 10 µM | 26.4 mg/mL
5 | HWCitGWV (HW[Cit]GWV) [comb. library peptide, SpA mimic] |  |  |  | 108 µM | 78 mg/mL
6 | FYWHCLDE |  |  |  | 1.5 µM | 104.2 mg/mL
7 | NKFRGKYK [spot peptide array peptide] | Ka = 8.6 × 10^6M^−1 | DBC-4.9 |  |  | 
8 | KHRFNKD [phage-display library peptide, SpA mimic] |  |  |  | 0.02 µM | 
9 | DAAG [comb. library ligand, SpA mimic] | Ka = 2.6 × 10^5M^−1 |  |  |  | 49.6 mg/mL
10 | FYCHWALE |  |  |  | 6.1 µM | 87.6 mg/mL
11 | FYCHTIDE [FYCHTIDE(3)] |  |  |  | 5.7 µM | 63.7 mg/mL
12 | HYFKFD [comb. library peptide, SpA mimic] |  |  |  | 11 µM | 27.0 mg/mL
13 | D2AAG (DDAAG) [Compound D2AAG, comb. library ligand, SpA mimic] | Ka = 7.9 × 10^5M^−1 |  |  |  | 36.2 mg/mL
14 | FRRHL [comb. library peptide, SpA mimic] |  |  |  | 26 µM | 33.6 mg/mL
15 | cyclo[(Link-M-WFRHYK] |  |  |  | 7.6 µM | 19.7 mg/mL
16 | APAR [comb. tetrapeptide library peptide] |  |  |  | 0.094 µM | 9.1 mg/mL
